Laboratory results as given in patent US20220106272A1 (Terran Biosciences, Inc., priority 2018, published 2022).

Test: Metabolic stability in human liver microsomes
Type: in vitro ADME
Details: 0.25 μM test compound; for half-life at 0.25 μM: 2 mM NADPH, 37° C.; for CLint scaled at 0.25 μM: human liver microsomes
Description: Microsomal Assay: Human liver microsomes (20 mg/mL) were obtained from Xenotech, LLC (Lenexa, Kans.). β-nicotinamide adenine dinucleotide phosphate, reduced form (NADPH), magnesium chloride (MgCl2), and dimethyl sulfoxide (DMSO) were purchased from Sigma-Aldrich.
Determination of Metabolic Stability: 7.5 mM stock solutions of test compounds of structural formula (I) (e.g., of an embodiment or aspect of embodiment thereof described herein) or structural formula (II), or pharmaceutically acceptable salt thereof, were prepared in DMSO. The 7.5 mM stock solutions were diluted to 12.5-50 μM in acetonitrile (ACN). The 20 mg/mL human liver microsomes were diluted to 0.625 mg/mL in 0.1 M potassium phosphate buffer, pH 7.4, containing 3 mM MgCl2. The diluted microsomes were added to wells of a 96-well deep-well polypropylene plate in triplicate. A 10 μL aliquot of the 12.5-50 μM test compound was added to the microsomes and the mixture was pre-warmed for 10 minutes. Reactions were initiated by addition of pre-warmed NADPH solution. The final reaction volume was 0.5 mL and contained […] human liver microsomes, 0.25 μM test compound, and 2 mM NADPH in 0.1 M potassium phosphate buffer, pH 7.4, and 3 mM MgCl2. The reaction mixtures were incubated at 37° C., and 50 μL aliquots were removed at 0, 5, 10, 20, and 30 minutes and added to shallow-well 96-well plates which contain 50 μL of ice-cold ACN (acetonitrile) with internal standard to stop the reactions. The plates were stored at 4° C. for 20 minutes after which 100 μL of water was added to the wells of the plate before centrifugation to pellet precipitated proteins. Supernatants were transferred to another 96-well plate and analyzed for amounts of parent remaining by LC-MS/MS using an Applied Bio-systems API 4000 mass spectrometer. The same procedure was followed for the non-deuterated counterpart of the compound of Formula I and the positive control, 7-ethoxycoumarin (1 μM). Testing was done in triplicate.
Data analysis: The in vitro t1/2s for test compounds were calculated from the slopes of the linear regression of % parent remaining (ln) vs incubation time relationship.
k=−[slope of linear regression of % parent remaining (ln) vs incubation time]
The apparent intrinsic clearance was calculated using the following equation:
CLint(mL/min/kg)=(0.693/in vitro t1/2)(Incubation Volume/mg of microsomes)(45 mg microsomes/gram of liver)(20 gm of liver/kg b.w.)
Data analysis was performed using Microsoft Excel Software.

[1] = pH 7.4, EXP# 2506, 4.0 mg/mL human liver microsomes
[2] = pH 7.4, EXP# 2506, apparent intrinsic clearance
[3] = pH 7.4, EXP# 2503, 4.0 mg/mL human liver microsomes
[4] = pH 7.4, EXP#2503, apparent intrinsic clearance

| SMILES | half-life at 0.25 μM [1] [h] | CLint scaled at 0.25 μM [2] [mL/min/kg] | half-life at 0.25 μM [3] [h] | CLint scaled at 0.25 μM [4] [mL/min/kg] |
| --- | --- | --- | --- | --- |
| [2H]C1([2H])N(CCc2ccc(F)cc2)C([2H])([2H])C([2H])([2H])C([2H])([C@@H](O)c2cccc(OC)c2OC)C1([2H])[2H] [Compound 203, (R)-(2,3-dimethoxyphenyl)(1-(4-fluorophenethyl)piperidin-4-yl-2,2,3,3,4,5,5,6,6-d9)methanol] | – | – | 0.794 | 3.4 |
| [2H]C([2H])(Cc1ccc(F)cc1)N1C([2H])([2H])C([2H])([2H])C([2H])([C@@H](O)c2cccc(OC)c2OC)C([2H])([2H])C1([2H])[2H] [Compound 215, (R)-(2,3-dimethoxyphenyl)(1-(2-(4-fluorophenyl)ethyl-1,1-d2)piperidin-4-yl-2,2,3,3,4,5,5,6,6-d9)methanol] | – | – | 0.777 | 3.4 |
| [2H]C([2H])([2H])Oc1cccc([C@H](O)C2([2H])C([2H])([2H])C([2H])([2H])N(CCc3ccc(F)cc3)C([2H])([2H])C2([2H])[2H])c1OC([2H])([2H])[2H] [Compound 347, (R)-(2,3-bis(methoxy-d3)phenyl)(1-(4-fluorophenethyl)piperidin-4-yl-2,2,3,3,4,5,5,6,6-d9)methanol] | – | – | 0.815 | 3.2 |
| [2H]C([2H])([2H])Oc1cccc([C@H](O)C2([2H])C([2H])([2H])C([2H])([2H])N(C([2H])([2H])Cc3ccc(F)cc3)C([2H])([2H])C2([2H])[2H])c1OC([2H])([2H])[2H] [Compound 359, (R)-(2,3-bis(methoxy-d3)phenyl)(1-(2-(4-fluorophenyl)ethyl-1,1-d2)piperidin-4-yl-2,2,3,3,4,5,5,6,6-d9)methanol] | – | – | 1.1 | 2.4 |
| [2H]C([2H])([2H])Oc1cccc([C@H](O)C2([2H])C([2H])([2H])C([2H])([2H])N(C([2H])([2H])C([2H])([2H])c3ccc(F)cc3)C([2H])([2H])C2([2H])[2H])c1OC([2H])([2H])[2H] [Compound 383, (R)-(2,3-bis(methoxy-d3)phenyl)(1-(2-(4-fluorophenyl)ethyl-1,1,2,2-d4)piperidin-4-yl-2,2,3,3,4,5,5,6,6-d9)methanol] | – | – | 1.23 | 2.3 |
| COc1cccc([C@H](O)C2CCN(CCc3ccc(F)cc3)CC2)c1OC [volinanserin, (R)-(+)-α-(2,3-dimethoxyphenyl)-1-[2-(4-fluorophenyl)ethyl]-4-piperidinemethanol, reference compound] | 0.808 | 3.2 | 0.745 | 3.5 |

Results, then the molecule that gave them:

| half-life at 0.25 μM [1] [h] | CLint scaled at 0.25 μM [2] [mL/min/kg] | half-life at 0.25 μM [3] [h] | CLint scaled at 0.25 μM [4] [mL/min/kg] | SMILES |
| --- | --- | --- | --- | --- |
| 1.16 | 2.3 | – | – | [2H]C([2H])([2H])Oc1cccc([C@H](O)C2CCN(CCc3ccc(F)cc3)CC2)c1OC [Compound 115, (R)-(1-(4-fluorophenethyl)piperidin-4-yl)(2-methoxy-3-(methoxy-d3)phenyl)methanol] |
| 1.19 | 2.4 | – | – | [2H]C([2H])([2H])Oc1c(OC)cccc1[C@H](O)C1CCN(CCc2ccc(F)cc2)CC1 [Compound 131, (R)-(1-(4-fluorophenethyl)piperidin-4-yl)(3-methoxy-2-(methoxy-d3)phenyl)methanol] |
| 1.12 | 2.3 | – | – | [2H]C([2H])([2H])Oc1cccc([C@H](O)C2CCN(CCc3ccc(F)cc3)CC2)c1OC([2H])([2H])[2H] [Compound 147, (R)-(2,3-bis(methoxy-d3)phenyl)(1-(4-fluorophenethyl)piperidin-4-yl)methanol] |
| 1.19 | 2.2 | – | – | [2H]C([2H])([2H])Oc1cccc([C@]([2H])(O)C2CCN(CCc3ccc(F)cc3)CC2)c1OC([2H])([2H])[2H] [Compound 148, (R)-(2,3-bis(methoxy-d3)phenyl)(1-(4-fluorophenethyl)piperidin-4-yl)methan-d-ol] |
| 1.17 | 2.3 | – | – | [2H]C([2H])([2H])Oc1cccc([C@H](O)C2CCN(C([2H])([2H])Cc3ccc(F)cc3)CC2)c1OC([2H])([2H])[2H] [Compound 151, (R)-(2,3-bis(methoxy-d3)phenyl)(1-(2-(4-fluorophenyl)ethyl-1,1-d2)piperidin-4-yl)methanol] |
| 1.42 | 1.9 | – | – | [2H]C([2H])([2H])Oc1cccc([C@H](O)C2CCN(C([2H])([2H])C([2H])([2H])c3ccc(F)cc3)CC2)c1OC([2H])([2H])[2H] [Compound 159, (R)-(2,3-bis(methoxy-d3)phenyl)(1-(2-(4-fluorophenyl)ethyl-1,1,2,2-d4)piperidin-4-yl)methanol] |
